Laboratory results published in US9802941B2, “Compounds and methods for inhibiting histone demethylases” (Gilead Sciences, Inc., priority 2014, dated 2017).
Where two headings read alike, the source gives them in different places.

Key:
Type in all cases: biochemical
KDM4C (JMJD2C) = target: T1, KDM4C (JMJD2C) (Homo sapiens, UniProt Q9H3R0); assay: Histone lysine demethylase AlphaLISA assay, KDM4C
T1 construct: KDM4C; BRIC, Denmark; 1-349; E. coli; host or cells: E. coli
T1 sequence (Q9H3R0 1-349): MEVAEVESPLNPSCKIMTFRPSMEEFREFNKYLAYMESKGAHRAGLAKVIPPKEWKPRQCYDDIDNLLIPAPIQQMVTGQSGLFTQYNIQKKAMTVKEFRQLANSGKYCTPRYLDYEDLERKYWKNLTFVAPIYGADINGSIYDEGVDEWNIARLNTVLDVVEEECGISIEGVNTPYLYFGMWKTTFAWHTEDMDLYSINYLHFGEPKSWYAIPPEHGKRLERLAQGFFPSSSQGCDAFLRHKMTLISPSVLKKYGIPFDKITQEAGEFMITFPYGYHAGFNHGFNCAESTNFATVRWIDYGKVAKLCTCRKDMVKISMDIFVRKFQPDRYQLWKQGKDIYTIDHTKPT
Procedure: (§1) The compounds of the application, or a pharmaceutically acceptable salt, or solvate, or prodrug thereof, are tested in an in vitro AlphaLISA assay. Enzymes are dissolved in enzyme buffer and incubated before they are added to DMSO solutions of compounds of the application, or a pharmaceutically acceptable salt, or solvate, or prodrug thereof, in enzyme buffer. The reaction mixture is then incubated for an additional period of time before substrate solution is added and then the resulting mixture again incubated. Acceptor beads and suspended Epigenetic Buffer from stock are added and the suspension is again incubated before a suspension of streptavidin donor beads in Epigenetic Buffer is added. After an additional period of incubation, the plates are read.
(§2) The ability of compounds of the application to inhibit the histone lysine demethylase activity in vitro of different enzymes was determined.
(§3) The reaction mixture was incubated for another 10 minutes before 5 μL of substrate solution was added and the resulting mixture was then incubated at room temperature. […] After incubation at room temperature in the dark, the plates were read.
(§4) Enzyme Buffer: 50 mM Hepes (pH 7.4-8.0), 0.003-0.01% Tween-20, 0.1% BSA; 5 μM (NH4)2Fe(SO4)2.

KDM2B (FBXL10) = target: T2, KDM2B (FBXL10) (Homo sapiens, UniProt Q8NHM5); assay: Histone lysine demethylase AlphaLISA assay, KDM2B
T2 construct: KDM2B; BPS,; 1-650; Bac; purchased BPS Bioscience, US; host or cells: baculovirus system
T2 sequence (Q8NHM5 1-650): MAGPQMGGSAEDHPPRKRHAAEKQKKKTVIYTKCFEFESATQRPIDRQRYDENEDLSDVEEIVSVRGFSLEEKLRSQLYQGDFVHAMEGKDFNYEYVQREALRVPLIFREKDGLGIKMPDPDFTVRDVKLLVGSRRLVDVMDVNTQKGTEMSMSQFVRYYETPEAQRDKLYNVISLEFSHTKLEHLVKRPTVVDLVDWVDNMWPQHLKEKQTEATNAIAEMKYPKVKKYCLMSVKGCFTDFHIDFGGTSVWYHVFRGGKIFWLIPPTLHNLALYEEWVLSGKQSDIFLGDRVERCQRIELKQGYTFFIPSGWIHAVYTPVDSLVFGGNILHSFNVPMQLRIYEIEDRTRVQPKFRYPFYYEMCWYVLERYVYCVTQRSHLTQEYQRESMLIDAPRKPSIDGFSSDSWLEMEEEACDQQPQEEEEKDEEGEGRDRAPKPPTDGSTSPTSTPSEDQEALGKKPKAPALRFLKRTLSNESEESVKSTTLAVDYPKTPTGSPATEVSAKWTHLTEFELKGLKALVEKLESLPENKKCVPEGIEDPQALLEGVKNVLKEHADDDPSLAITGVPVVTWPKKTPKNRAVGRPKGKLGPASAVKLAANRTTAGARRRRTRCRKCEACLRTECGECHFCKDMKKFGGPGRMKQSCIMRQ
Procedure: as §1, §2, §3, §4

PHF8 (KDM7) = target: T3, PHF8 (KDM7) (Homo sapiens, UniProt Q9UPP1); assay: Histone lysine demethylase AlphaLISA assay, PHF8
T3 construct: KDM7 (PHF8); BRIC; 1-1322; Bac
Procedure: as §1, §2, §3, §4

KDM5B (PLU-1) = target: T4, KDM5B (PLU-1) (Homo sapiens, UniProt Q9UGL1); assay: Histone lysine demethylase AlphaLISA assay, KDM5B
T4 construct: BRIC; 1-809; E. coli; host or cells: E. coli
T4 sequence (Q9UGL1 1-809): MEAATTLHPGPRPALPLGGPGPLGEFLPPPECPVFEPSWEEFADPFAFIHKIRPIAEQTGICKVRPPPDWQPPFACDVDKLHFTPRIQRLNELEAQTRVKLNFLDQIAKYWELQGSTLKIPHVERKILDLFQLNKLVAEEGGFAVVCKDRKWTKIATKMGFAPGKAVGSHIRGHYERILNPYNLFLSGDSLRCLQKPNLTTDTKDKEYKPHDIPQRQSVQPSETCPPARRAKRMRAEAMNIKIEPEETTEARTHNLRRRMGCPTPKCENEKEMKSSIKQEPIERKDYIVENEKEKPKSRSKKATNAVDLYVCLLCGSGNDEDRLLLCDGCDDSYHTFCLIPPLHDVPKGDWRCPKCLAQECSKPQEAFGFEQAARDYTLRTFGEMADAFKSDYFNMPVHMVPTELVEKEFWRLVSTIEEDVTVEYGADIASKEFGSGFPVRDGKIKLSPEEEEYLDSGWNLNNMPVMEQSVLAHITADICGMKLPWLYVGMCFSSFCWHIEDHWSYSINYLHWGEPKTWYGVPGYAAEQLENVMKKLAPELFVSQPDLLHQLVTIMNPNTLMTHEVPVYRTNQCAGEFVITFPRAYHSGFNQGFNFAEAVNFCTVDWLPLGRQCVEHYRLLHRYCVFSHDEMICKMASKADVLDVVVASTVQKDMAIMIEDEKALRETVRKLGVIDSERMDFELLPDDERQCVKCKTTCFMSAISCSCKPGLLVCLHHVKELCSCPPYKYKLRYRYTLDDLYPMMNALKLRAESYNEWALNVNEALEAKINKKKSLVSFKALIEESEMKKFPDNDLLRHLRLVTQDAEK
Procedure: as §1, §2, §3, §4

[1] = AlphaLISA assay, read-out: HDME Inhibition KDM4C (IC50)
[2] = AlphaLISA, in vitro, read-out: HDME Inhibition KDM4C
[3] = AlphaLISA, in vitro, read-out: HDME Inhibition KDM2B
[4] = AlphaLISA, in vitro, read-out: HDME Inhibition PHF8
[5] = AlphaLISA assay, read-out: HDME Inhibition KDM5B (IC50)
[6] = AlphaLISA, in vitro, read-out: HDME Inhibition KDM5B
[7] = AlphaLISA assay, read-out: HDME Inhibition KDM2B (IC50)
[8] = AlphaLISA assay, read-out: HDME Inhibition PHF8 (IC50)

T3 sequence (Q9UPP1 37-440 limits assumed): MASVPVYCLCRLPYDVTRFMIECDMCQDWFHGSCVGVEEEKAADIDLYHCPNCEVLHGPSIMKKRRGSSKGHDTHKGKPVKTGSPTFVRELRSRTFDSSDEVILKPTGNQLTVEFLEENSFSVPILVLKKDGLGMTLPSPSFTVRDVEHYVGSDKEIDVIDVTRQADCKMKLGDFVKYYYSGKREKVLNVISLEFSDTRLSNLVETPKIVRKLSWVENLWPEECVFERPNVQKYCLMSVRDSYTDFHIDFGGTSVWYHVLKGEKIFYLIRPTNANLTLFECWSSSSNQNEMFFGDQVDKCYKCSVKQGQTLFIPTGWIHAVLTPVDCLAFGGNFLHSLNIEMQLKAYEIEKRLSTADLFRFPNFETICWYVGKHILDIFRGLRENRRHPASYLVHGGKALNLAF

| SMILES | IC50 (KDM4C (JMJD2C); [1]) [µM] | IC50 (KDM4C (JMJD2C); [2]) [µM] | IC50 (KDM2B (FBXL10); [3]) [µM] | IC50 (PHF8 (KDM7); [4]) [µM] | IC50 (KDM5B (PLU-1); [5]) [µM] | IC50 (KDM5B (PLU-1); [6]) [µM] | IC50 (KDM2B (FBXL10); [7]) [µM] | IC50 (PHF8 (KDM7); [8]) [µM] | IC50 (KDM5B (PLU-1)) [µM] |
| --- | --- | --- | --- | --- | --- | --- | --- | --- | --- |
| COc1ccc(OCc2ccccc2)c(CNCc2cc(C(=O)O)cc(C)n2)n1 [Compound 92, 2-[({[3-(benzyloxy)-6-methoxypyridin-2-yl]methyl}amino)methyl]-6-methylpyridine-4-carboxylic acid] | > 10 | > 10 | 0.053 | 1.23 | > 10 | > 10 | – | – | – |
| CCc1nnc(CNCc2cc(C(=O)O)cc(C)n2)n1Cc1cccc(C(C)O)c1 (centres unmarked) [Compound 86, 2-({[(5-ethyl-4-{[3-(1-hydroxyethyl)phenyl]methyl}-4H-1,2,4-triazol-3-yl)methyl]amino}methyl)-6-methylpyridine-4-carboxylic acid] | > 10 | > 10 | > 10 | > 10 | > 10 | > 10 | > 10 | > 10 | – |
| Cc1cc(C(=O)O)cc(CNCc2nccn2Cc2cccc(C#N)c2)n1 [Compound 47, 2-{[({1-[(3-cyanophenyl)methyl]-1H-imidazol-2-yl}methyl)amino]methyl}-6-methylpyridine-4-carboxylic acid] | > 10 | > 10 | 1.26 | 0.391 | – | – | – | – | 4.08 |
| O=C(O)c1cc(CO)nc(CNCc2nccn2Cc2ccc(F)cc2)c1 [Compound 81, 2-{[({1-[(4-fluorophenyl)methyl]-1H-imidazol-2-yl}methyl)amino]methyl}-6-(hydroxymethyl)pyridine-4-carboxylic acid] | – | 0.823 | 0.14 | 0.334 | – | – | – | – | 0.021 |
| Cc1cc(OCc2ccccc2)c(CCNCc2cc(C(=O)O)cc(C)n2)nn1 [Compound 82, 2-[({2-[4-(benzyloxy)-6-methylpyridazin-3-yl]ethyl)amino)methyl]-6-methylpyridine-4-carboxylic acid] | > 10 | > 10 | 1.4 | 3.32 | > 10 | > 10 | – | – | – |
| CC(O)c1nnc(CNCc2cc(C(=O)O)cc(CO)n2)n1Cc1ccc(F)cc1 (centres unmarked) [Compound 77, 2-{[({4-[(4-fluorophenyl)methyl]-5-(1-hydroxyethyl)-4H-1,2,4-triazol-3-yl}methyl)amino]methyl}-6-(hydroxymethyl)pyridine-4-carboxylic acid] | > 10 | > 10 | 0.379 | 1.09 | > 10 | > 10 | – | – | – |
| O=C(O)c1cc(CO)nc(CNCc2nc(CO)cn2Cc2ccc(F)cc2)c1 [Compound 88, 2-{[({1-[(4-fluorophenyl)methyl]-4-(hydroxymethyl)-1H-imidazol-2-yl}methyl}amino]methyl}-6-(hydroxymethyl)pyridine-4-carboxylic acid] | – | 3.47 | 0.585 | 1.27 | – | – | – | – | 0.246 |
| CC(C)Cc1ccc(OCc2ccccc2)nc1CNCc1cc(C(=O)O)cc(CO)n1 [Compound 97, 2-[({[6-(benzyloxy)-3-(2-methylpropyl)pyridin-2-yl]methyl}amino)methyl]-6-(hydroxymethyl)pyridine-4-carboxylic acid] | > 10 | > 10 | 0.308 | > 10 | > 10 | > 10 | – | > 10 | – |
| CSc1cnc(CNCc2cc(C(=O)O)cc(C)n2)n1Cc1ccc(F)cc1 [Compound 43, 2-{[({1-[(4-fluorophenyl)methyl]-5-(methylsulfanyl)-1H-imidazol-2-yl}methyl)amino]methyl}-6-methyl pyridine-4-carboxylic acid] | > 10 | > 10 | 0.442 | 0.869 | > 10 | > 10 | – | – | – |
| Cc1cc(C(=O)O)cc(CNCc2nccn2Cc2cccc(CN)c2)n1 [Compound 48, 2-({[(1-{[3-(aminomethyl)phenyl]methyl}-1H-imidazol-2-yl)methyl]amino}methyl)-6-methylpyridine-4-carboxylic acid] | > 10 | > 10 | > 10 | > 10 | > 10 | > 10 | > 10 | > 10 | – |
| Cc1cc(C(=O)O)cc(CNCc2nnc(C(C)O)n2Cc2ccc(F)cc2)n1 (centres unmarked) [Compound 85, 2-{[({4-[(4-fluorophenyl)methyl]-5-(1-hydroxyethyl)-4H-1,2,4-triazol-3-yl}methyl)amino]methyl}-6-methylpyridine-4-carboxylic acid] | > 10 | > 10 | 0.461 | 1.86 | > 10 | > 10 | – | – | – |
| Cc1cc(C(=O)O)cc(CNCc2nnc(C(C)(C)C)n2Cc2ccc(F)cc2)n1 [Compound 49, 2-{[({5-tert-butyl-4-[(4-fluorophenyl)methyl]-4H-1,2,4-triazol-3-yl}methyl)amino]methyl}-6-methylpyridine-4-carboxylic acid] | > 10 | > 10 | 0.838 | 1.11 | > 10 | > 10 | – | – | – |
| CCc1nnc(CNCc2cc(C(=O)O)cc(C)n2)n1C/C=C/c1ccccc1 [Compound 68, 2-{[({5-ethyl-4-[(2E)-3-phenylprop-2-en-1-yl]-4H-1,2,4-triazol-3-yl}methyl)amino]methyl}-6-methylpyridine-4-carboxylic acid] | > 10 | > 10 | 1.68 | 1.8 | > 10 | > 10 | – | – | – |
| CCN(CCN(C)C)C(=O)CNCc1cc(C(=O)O)cc(CO)n1 [Compound 102, 2-{[({[2-(dimethylamino)ethyl](ethyl)carbamoyl}methyl)amino]methyl}-6-(hydroxymethyl)pyridine-4-carboxylic acid] | – | 7.05 | 0.24 | > 10 | – | 0.02 | – | > 10 | – |
